Laboratory results taken from patent US4559360A, “Cysteine derivatives, a process for their preparation, and pharmaceutical compositions which contain them” (Magis Farmaceutici S.R.L., priority 1984, dated 1985).

Legend:
Format in all cases: in vivo
[1] = system: rats of Sprague-Dawley stock; test: Acute toxicity in the rat (LD50, Litchfield and Wilcoxon); conditions: 7 days observation
Method: (§1) The acute toxicity of the proucts was studied on male and female adult mice of Swiss stock, and on male and female adult rats of Sprague-Dawley stock, by oral and subcutaneous administration. For each method of administration, the tested doses were administered in geometrical progression to 10 animals (5 males and 5 females). After treatment, the animals were kept under observation for 7 days. On termination of this period, the LD50 and the relative confidence limits were calculated by the Litchfield and Wilcoxon method (Pharmacol. Exp. Ther. 96-99, 1949).

mice of Swiss stock = test: Acute toxicity in the mouse (LD50, Litchfield and Wilcoxon); conditions: 7 days observation
Method: as §1

[2] = Acute toxicity in the rat (LD50, Litchfield and Wilcoxon); conditions: in vivo, 7 days observation
Method: as §1

[3] = Acute toxicity in the mouse (LD50, Litchfield and Wilcoxon); conditions: in vivo, 7 days observation
Method: as §1

Compound	LD50 ([1]; oral)	LD50 ([1]; subcutaneous)	LD50 (mice of Swiss stock; oral)	LD50 (mice of Swiss stock; subcutaneous)	LD50 at 168 h ([2]; oral)	LD50 at 168 h ([2]; sc, subcutaneous)	LD50 at 168 h ([3]; oral)	LD50 at 168 h ([3]; sc, subcutaneous)
S-(carboxymethyl)-L-cysteine acetylsalicylanhydride [MSF 02]	4800 mg/kg	4500 mg/kg	4600 mg/kg	4400 mg/kg				
CC(=O)Oc1ccccc1C(=O)OC(=O)CSC[C@H](N)C(=O)OC(=O)c1ccccc1OC(C)=O [MSF 03, S-carboxymethylcysteine bis-acetylsalicylanhydride]					4500 mg/kg	4200 mg/kg	4300 mg/kg	4100 mg/kg
CC(=O)Oc1ccccc1C(=O)N[C@@H](CSCC(=O)O)C(=O)O [MSF 01, S-(carboxymethyl)-N-(2-acetoxybenzoyl)-L-cysteine]					4800 mg/kg	4500 mg/kg	4800 mg/kg	4500 mg/kg
